From US20120142682A1, “ANT[…] INHIBITING BACTERIAL MONO-ADP-RIBOSYLT[…]” (UNIVERSITY OF GUELPH, priority 2010, published 2012)
Like-named read-outs stand apart in the source and are kept apart here.

How the values were obtained:
[1] = tested on: Saccharomyces cerevisiae cells expressing the catalytic domain of P. aeruginosa ExoA (ExoAc); test: Yeast-based compound screen; format: cell-based; settings: compound 50 μM; for Protection in Yeast: w303 strain, growth restored
[2] = tested on: ExoA intoxicated C38 cells; format: cell-based, Human
[3] = tested on: C38 cells in the presence of 650 ng/mL of ExoA; test: Determination of half-maximal effective concentration (EC50) in C38 cells; format: cell-based, Human; settings: 96 h
Experimental: Cell viability was determined using the same method as the cytoprotection assay. The EC50 values were extrapolated from each corresponding line-of-best-fit (Sigmoidal function in Origin 6.1), and the average values reported±the standard deviation.

[4] = biological target: cholix toxin (Vibrio cholerae, UniProt Q5EK40); test: biochemical; format: biochemical
[5] = biological target: WT ExoAc (Pseudomonas aeruginosa, UniProt P11439); test: biochemical; format: binding, P. aeruginosa
[6] = 650 ng/ml ExoA (10-times LD50), NAP and V30 with 0.5% DMSO
[7] = read-out: Kd, second (lower affinity) binding constant (converted)

Sequence of cholix toxin (Q5EK40 33-666 limits assumed): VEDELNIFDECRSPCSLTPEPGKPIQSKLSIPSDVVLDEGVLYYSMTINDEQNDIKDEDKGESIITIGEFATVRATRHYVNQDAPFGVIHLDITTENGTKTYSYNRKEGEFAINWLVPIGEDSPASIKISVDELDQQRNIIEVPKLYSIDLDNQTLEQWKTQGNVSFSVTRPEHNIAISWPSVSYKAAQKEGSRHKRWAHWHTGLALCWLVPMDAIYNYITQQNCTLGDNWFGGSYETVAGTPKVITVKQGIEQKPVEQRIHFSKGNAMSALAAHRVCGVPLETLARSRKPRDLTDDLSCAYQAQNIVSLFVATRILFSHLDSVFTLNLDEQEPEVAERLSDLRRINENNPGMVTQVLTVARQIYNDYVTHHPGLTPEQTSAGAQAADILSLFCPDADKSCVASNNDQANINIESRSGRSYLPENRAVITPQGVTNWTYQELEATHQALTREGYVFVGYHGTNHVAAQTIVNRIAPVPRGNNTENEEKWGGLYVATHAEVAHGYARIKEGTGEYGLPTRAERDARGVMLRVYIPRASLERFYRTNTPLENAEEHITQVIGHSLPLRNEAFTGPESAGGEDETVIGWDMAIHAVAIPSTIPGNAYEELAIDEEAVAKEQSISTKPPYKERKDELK
Sequence of WT ExoAc (P11439 430-638 limits assumed): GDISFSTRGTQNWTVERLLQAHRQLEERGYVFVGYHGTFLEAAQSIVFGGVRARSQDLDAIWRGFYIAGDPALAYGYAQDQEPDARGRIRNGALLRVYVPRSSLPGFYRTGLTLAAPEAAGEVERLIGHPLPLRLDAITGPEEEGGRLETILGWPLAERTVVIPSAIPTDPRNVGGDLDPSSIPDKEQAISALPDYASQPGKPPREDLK

SMILES	Protection in Yeast [1]	protection of C38 cells against ExoA (in words) [2]	further results
Cn1c(=O)[nH]c(=O)c2c1nc(N1CCCCC1)n2CCCSc1nc2ccccc2s1 [Compound V19]	− (Compounds showing less than 5% growth were scored (−))	–	–
Cn1c(=O)c2[nH]c(CNCc3ccccc3Cl)nc2n(C)c1=O [Compound V17]	− (Compounds showing less than 5% growth were scored (−))	moderate activity	–
CCOC(=O)c1cnc2ccc(OCC)cc2c1Nc1ccc(C)cc1C [Compound V28]	toxic (any compound that reduced cell viability to less than 30%)	–	–
Brc1cccc(CNc2nc3ccccc3n2CCN2CCOCC2)c1 [Compound V26]	− (Compounds showing less than 5% growth were scored (−))	Weak protection	–
CN(C)Cc1nc2cccc3c2n1CCNC3=O [Compound P4]	− (Compounds showing less than 5% growth were scored (−))	–	EC50 [3, 6]: 12600 ± 3300 nM; IC50 ([4]; read-out: IC50): 960 nM; Ki ([4]; read-out: Ki): 132 ± 7 nM; Kd ([5]; read-out: Kd): 1380 ± 30 nM
Cn1c(=O)c2[nH]c(CN3CCc4ccccc4C3)nc2n(C)c1=O [Compound V12]	− (Compounds showing less than 5% growth were scored (−))	moderate activity	LD50 of ExoA in the presence of compound [2]: 228 ± 12 ng/mL; increase of the LD50 of ExoA [2]: ~3 fold
O=C(Nc1c2ccccc2nc2ccccc12)c1ccc([N+](=O)[O-])cc1 [Compound V7]	toxic (any compound that reduced cell viability to less than 30%)	–	–
O=C(CCCC(=O)Nc1ccc(F)c(Cl)c1)Nc1ccc(F)c(Cl)c1 [Compound V5]	toxic (any compound that reduced cell viability to less than 30%)	–	–
Cc1cccc(Cn2c(N3CCCCC3C)nc3c2c(=O)[nH]c(=O)n3C)c1 (stereo not shown) [Compound V10]	− (Compounds showing less than 5% growth were scored (−))	Weak protection	–
CCN(CC)CCn1c(NCc2ccc(F)cc2)nc2ccccc21.Cl.Cl [Compound V24]	− (Compounds showing less than 5% growth were scored (−))	moderate activity	LD50 of ExoA in the presence of compound [2]: 238 ± 16 ng/mL
CC1CCCCN1c1nc2c(c(=O)[nH]c(=O)n2C)n1Cc1ccccc1 (stereo not shown) [Compound V29]	+ (5-25% (+))	Weak protection	protection in yeast against ExoAc (in words) [1]: weak protection
CC1=C(C)C2C(=O)CC(SCC(=O)NCCO)=CC2S1 (stereo not shown) [Compound V30]	− (Compounds showing less than 5% growth were scored (−))	excellent protection	EC50 ([3]; Homo sapiens): 8800 ± 500 nM; protection of C38 cells from lethal action of high dose ExoA (morphology) [2]: completely protected; IC50 [4]: 2810 nM; Ki [4]: 367 ± 3 nM; Kd [5]: 931 ± 74 nM
CN(C)CC(=O)Nc1ccc2[nH]c(=O)c3ccccc3c2c1.Cl [PJ34, N-(6-oxo-5,6-dihydrophenanthridin-2-yl)-(N,N-dimethylamino)acetamide hydrochloride, reference compound]	− (Compounds showing less than 5% growth were scored (−))	–	IC50 [4]: 280 ± 70 nM; Ki [4]: 37 ± 9 nM; Kd [5]: 820 ± 54 nM
CC(=O)Nc1c(Nc2ccccc2)c2ccccc2oc1=O [Compound V31]	+ (5-25% (+))	Weak protection	protection in yeast against ExoAc (in words) [1]: weak protection
Nc1c(C(=O)Nc2ccc(S(N)(=O)=O)cc2)sc2nc3c(cc12)CCCC3 [Compound V6]	− (Compounds showing less than 5% growth were scored (−))	–	–
O=c1cc(NCCNc2cc(=O)oc3ccccc23)c2ccccc2o1 [Compound V1]	− (Compounds showing less than 5% growth were scored (−))	–	–
O=C(C1CCCN(Cc2c[nH]c3ccccc23)C1)N1CCCCCC1 (stereo not shown) [Compound V13]	− (Compounds showing less than 5% growth were scored (−))	–	–
O=C(CC1C(=O)NCCN1C(=O)CN1CCN(CCO)CC1)Nc1ccccc1 (stereo not shown) [Compound V20]	− (Compounds showing less than 5% growth were scored (−))	–	–
CN(C)CCNc1c(N)c(=O)oc2ccccc12 [Compound V22]	− (Compounds showing less than 5% growth were scored (−))	Weak protection	–
COc1ccc(NC(=O)CC2C(=O)N(c3ccc(Cl)cc3)C(=S)N2CCc2ccncc2)cc1 (stereo not shown) [Compound V18]	− (Compounds showing less than 5% growth were scored (−))	–	–

SMILES	Protection in Yeast [1]	protection of C38 cells against ExoA (in words) [2]	further results
CCN(CC)CCn1c(NCc2nc3ccccc3n2Cc2ccccc2)nc2ccccc21 [Compound V3]	− (Compounds showing less than 5% growth were scored (−))	–	–
Nc1c(NCCCN2CCOCC2)c2ccccc2oc1=O [Compound V9]	− (Compounds showing less than 5% growth were scored (−))	moderate activity	–
O=c1[nH]c2ccccc2c2ccccc12 [PJ97A, reference compound]	–	strong protection	LD50 of ExoA in the presence of compound [2]: > 750 ng/mL; increase of the LD50 of ExoA [2]: ~12 fold; IC50 ([4]; read-out: IC50): 4670 ± 175 nM; Ki ([4]; read-out: Ki): 610 ± 175 nM; Kd ([5]; read-out: Kd): 393 ± 64 nM
Cc1[nH]c2ccccc2c1CN1CCN(c2ccccn2)CC1 [Compound V14]	− (Compounds showing less than 5% growth were scored (−))	–	–
O=C1NN=C(CN2CCOCC2)c2c[nH]c3cccc1c23 [Compound P1]	− (Compounds showing less than 5% growth were scored (−))	–	EC50 [3, 6]: 2900 ± 800 nM; protection of C38 cells from lethal action of high dose ExoA (morphology) [2]: completely protected; Ki ([4]; read-out: Ki): 22 ± 4 nM; difference in affinity between the two binding sites [5]: ~50 fold; Kd ([5]; read-out: Kd): 10 nM; Kd [5, 7]: 650 nM
CCOC(=O)c1[nH]c(C)c(C(=O)C2=C(O)C(=O)N(CCCN3CCOCC3)C2c2cccc(F)c2)c1C (stereo not shown) [Compound V25]	− (Compounds showing less than 5% growth were scored (−))	Weak protection	–
COc1ccc(Nc2nc(N3CCN(CCO)CC3)nc3ccccc23)c(OC)c1 [Compound V8]	− (Compounds showing less than 5% growth were scored (−))	–	–
CN1CCN(CCCNc2c(N)c(=O)oc3ccccc23)CC1 [Compound V23]	++ (25-50% (++))	moderate activity	LD50 of ExoA in the presence of compound [2]: 199 ± 30 ng/mL; protection in yeast against ExoAc (in words) [1]: modest protection
O=C1NCCn2c(CCc3ccc(CN4CCCC4)cc3)nc3cccc1c32 [Compound P5]	− (Compounds showing less than 5% growth were scored (−))	–	EC50 [3, 6]: 16700 ± 1900 nM; IC50 ([4]; read-out: IC50): 4460 nM; Ki ([4]; read-out: Ki): 582 ± 124 nM; Kd ([5]; read-out: Kd): 750 ± 10 nM
Nc1ccc2c3c(cccc13)C(=O)NC2=O [Compound 4-NAP, reference compound]	++ (25-50% (++))	–	–
CCc1ccc2ncc(C(=O)O)c(O)c2c1 [Compound V27]	− (Compounds showing less than 5% growth were scored (−))	–	–
Cc1cc(Nc2ccc(O)cc2)c2ccccc2n1.Cl [Compound V16]	− (Compounds showing less than 5% growth were scored (−))	Weak protection	–
CCn1c(SCc2nc3ccccc3c(=O)[nH]2)nnc1-c1ccc(Cl)cc1 [Compound V15]	+ (5-25% (+))	moderate activity	LD50 of ExoA in the presence of compound [2]: 208 ± 41 ng/mL; protection in yeast against ExoAc (in words) [1]: weak protection
O=C1NC(=O)c2cccc3cccc1c23 [NAP, 1,8-naphthalimide, reference compound]	++++ (Compounds found to restore growth to 50-75% (++++))	excellent protection	EC50 ([3]; Homo sapiens): 3800 ± 900 nM; Kd [5]: 950 ± 30 nM
CN1CCN(c2c(N)c(=O)oc3ccccc23)CC1 [Compound V2]	− (Compounds showing less than 5% growth were scored (−))	–	–
O=C(NCCNc1ccnc2cc(Cl)ccc12)c1ccccc1F [Compound V4]	− (Compounds showing less than 5% growth were scored (−))	–	–
CC1(C)C(=O)N(CC(O)Cn2cnc3ccccc32)C(=O)N1CN1C(=O)N(CC(O)Cn2cnc3ccccc32)C(=O)C1(C)C (stereo not shown) [Compound V11]	− (Compounds showing less than 5% growth were scored (−))	Weak protection	–
COC(=O)c1[nH]c(C)c(C(=O)C2=C(O)C(=O)N(CCCN3CCOCC3)C2c2ccccn2)c1C (stereo not shown) [Compound V21]	− (Compounds showing less than 5% growth were scored (−))	Weak protection	–
O=C1NCC2c3cc(S(=O)(=O)O)ccc3Oc3cccc1c32 (stereo not shown) [Compound P8]	− (Compounds showing less than 5% growth were scored (−))	modest	IC50 ([4]; read-out: IC50): 1040 ± 136 nM; Ki ([4]; read-out: Ki): 136 ± 3 nM; difference in affinity between the two binding sites [5]: ~50 fold; Kd ([5]; read-out: Kd): 160 nM; Kd [5, 7]: 5210 nM
